US10253002B2, “Compounds and methods of treating infections” (Neoculi Pty Ltd., priority 2013, dated 2019)
Converted amounts (≈) assume the structure as drawn. Read-outs that look alike come from different tables or passages of the source.

Tested on: methicillin-resistant Staphylococcus aureus (MRSA)
Assay: Broth microdilution MIC (CLSI), Example 1
Assay type: cell-based
Protocol: Cation adjusted Mueller Hinton Broth (CAMHB) was prepared using 100 mL sterile Mueller Hinton broth (pH adjusted). To each 100 mL volume, 125 μL of calcium stock solution (10 mg Ca^2+ per ml) and 43 μL magnesium stock solution (10 mg Mg^2+ per mL) was aseptically added. Sufficient broth is made up for daily use, with unused portions being stored at 4° C. overnight.
Potency was described as 1000 mg/g or 100%. The powder was dissolved in 10 mL DMSO and 1 mL volumes were aliquoted into eppendorf tubes and stored at −80° C.
For Staphylococcus aureus, a working solution of 256 μg/mL was prepared by diluting stock solutions as described above 1:100 in CAMHB (100 μL into 9.9 mL).
Serial dilutions were prepared in 96 well plates were set up in a safety cabinet according to methods standard in the art. Briefly: 90 μL of the working antibiotic solution was added to each well in Column 12 of the plate, and mixed well, before 90 μL was transferred to column 11. The solutions were mixed again, and then transferred to the next column as before, continuing the dilutions through to column 3. Mixing the well requires the pick up and expulsion of 90 μL in each well 3-4 times before picking up and transferring the 90 μL to the next well. […] The trays were set up as follows: 2 strains were tested in duplicate in one tray, such that strain 1 was located in rows A to D, strain 2 was located in rows E to H, etc.
Fresh cultures of bacteria were prepared for testing on sheep blood agar (SBA), and overnight incubation at 37° C. as follows; 2-3 colonies of each strain in 7 mL sterile saline, and the OD600 measured as an indication of the density (approx. […] or 0.5 McFarland Standard). The bacterial suspension was adjusted to a final absorbance of 0.08 to 0.100, using saline to achieve correct density, and as the blank. Within 15 minutes of preparation, the adjusted bacterial suspension with sterile saline 1:20 (1 mL into 19 mL sterile saline) to achieve a final bacterial concentration of 4 to 5×10^6 CFU/mL. The bacterial solution was placed into a sterile trough and 10 μL of bacterial solution added into wells 2 through to 12 on each required row (dilution of 1:10, with final concentration of bacteria in wells=5×10^5 CFU/mL). The tray was sealed and incubated at 37° C. for 18-24 h. The purity of bacterial suspension was confirmed by streaking out 50 μL of the 1:20 dilution onto a SBA plate, which was incubated for 37° C. for 18 h and examined. Viable counts were carried out to ensure that the correct concentration of bacteria and been added to the wells. The diluted bacterial solution (4 to 5×10^6 CFU/mL) was diluted 1:10 downwards by adding 100 μL to 900 μL of sterile saline in sterile tubes, and the serial dilutions continued 1:10 for 5 tubes. 100 μL (4-5 drops) of the 4th and 5th dilutions (tube 4=105 and tube 5=10^6 CFU/ml) was plated around in duplicate on pre-dried PCA agar plates and incubated at 37° C. overnight. The following day the number of colonies on the plates was counted and the average count in 100 μL obtained. The study was multiplied by 10 to obtain a viable bacterial count per mL.
Minimum inhibitory concentrations (μg/mL) were determined using the broth microdilution method recommended by the Clinical and Laboratory Standards Institute (CLSI) (Methods for Dilution Antimicrobial Susceptibility Tests for Bacteria That Grow Aerobically; Approved Standard—Seventh Edition. CLSI M7-A7, 2006; Performance Standards for Antimicrobial Disk and Dilution Susceptibility Tests for Bacteria Isolated from Animals; Approved Standard—Second Edition. CLSI M31-A2, 2002; Performance Standards for Antimicrobial Susceptibility Testing; CLSI M2-A9, 2006).
MIC breakpoints were determined by visual assessment and then confirmed using an ELISA plate reader, measuring absorbance levels at 450 nm.

[1] = Staphylococcus aureus, MRSA, MRSA 616, Test 1, read-out: MIC
[2] = Staphylococcus aureus, MRSA, MRSA 747, Test 1, read-out: MIC

Question: Which results are given for `CC1(C)S[C@@H]2[C@H](NC(=O)[C@H](N)c3ccccc3)C(=O)N2[C@H]1C(=O)O` [Ampicillin]?
Answer: MIC90 (MRSA, 21 isolates): > 128 µg/mL; MIC90 (MRSA, Staphylococcus aureus isolates of Table 3, Test 1, read-out: MIC90): > 128 µg/mL; MIC90 (Staphylococcus aureus isolates of Table 3, Test 2): >128 µg/mL; MIC (Staphylococcus aureus, ATCC 29213 / MRSA, S. aureus strain ATCC 29213, read-out: MIC of control strain (internal quality control)): 2 µg/mL; MIC (Staphylococcus aureus, ATCC 29213 / MRSA, Staph. aureus ATCC 29213, Test 1, read-out: MIC): 2 µg/mL (≈ 5.72 µM); MIC (Staphylococcus aureus, ATCC 29213 / MRSA, Staph. aureus ATCC 29213, Test 2, read-out: MIC): 2 µg/mL (≈ 5.72 µM); MIC (Staphylococcus aureus, MRSA, 21 isolates, read-out: MIC mode): > 128 µg/mL; MIC (Staphylococcus aureus, MRSA, MRSA 516, Test 1, read-out: MIC): 32 µg/mL (≈ 91.6 µM); MIC (Staphylococcus aureus, MRSA, MRSA 516, Test 2, read-out: MIC): 32 µg/mL (≈ 91.6 µM); MIC (Staphylococcus aureus, MRSA, MRSA 570, Test 1, read-out: MIC): > 128 µg/mL; MIC (Staphylococcus aureus, MRSA, MRSA 570, Test 2, read-out: MIC): > 128 µg/mL; MIC (Staphylococcus aureus, MRSA, MRSA 580, Test 1, read-out: MIC): > 128 µg/mL; MIC (Staphylococcus aureus, MRSA, MRSA 580, Test 2, read-out: MIC): > 128 µg/mL; MIC (Staphylococcus aureus, MRSA, MRSA 606, Test 1, read-out: MIC): 32 µg/mL (≈ 91.6 µM); MIC (Staphylococcus aureus, MRSA, MRSA 606, Test 2, read-out: MIC): 32 µg/mL (≈ 91.6 µM); MIC (Staphylococcus aureus, MRSA, MRSA 610, Test 1, read-out: MIC): 128 µg/mL (≈ 366 µM); MIC (Staphylococcus aureus, MRSA, MRSA 610, Test 2, read-out: MIC): 128 µg/mL (≈ 366 µM); MIC [1]: 64 µg/mL (≈ 183 µM); MIC (Staphylococcus aureus, MRSA, MRSA 616, Test 2, read-out: MIC): 64 µg/mL (≈ 183 µM); MIC (Staphylococcus aureus, MRSA, MRSA 622, Test 1, read-out: MIC): 64 µg/mL (≈ 183 µM); MIC (Staphylococcus aureus, MRSA, MRSA 622, Test 2, read-out: MIC): 64 µg/mL (≈ 183 µM); MIC (Staphylococcus aureus, MRSA, MRSA 698, Test 1, read-out: MIC): 64 µg/mL (≈ 183 µM); MIC (Staphylococcus aureus, MRSA, MRSA 698, Test 2, read-out: MIC): 64 µg/mL (≈ 183 µM); MIC (Staphylococcus aureus, MRSA, MRSA 713, Test 1, read-out: MIC): > 128 µg/mL; MIC (Staphylococcus aureus, MRSA, MRSA 713, Test 2, read-out: MIC): > 128 µg/mL; MIC (Staphylococcus aureus, MRSA, MRSA 718, Test 1, read-out: MIC): > 128 µg/mL; MIC (Staphylococcus aureus, MRSA, MRSA 718, Test 2, read-out: MIC): > 128 µg/mL; MIC (Staphylococcus aureus, MRSA, MRSA 728, Test 1, read-out: MIC): 64 µg/mL (≈ 183 µM); MIC (Staphylococcus aureus, MRSA, MRSA 728, Test 2, read-out: MIC): 64 µg/mL (≈ 183 µM); MIC (Staphylococcus aureus, MRSA, MRSA 734, Test 1, read-out: MIC): > 128 µg/mL; MIC (Staphylococcus aureus, MRSA, MRSA 734, Test 2, read-out: MIC): > 128 µg/mL; MIC (Staphylococcus aureus, MRSA, MRSA 741, Test 1, read-out: MIC): 8 µg/mL (≈ 22.9 µM); MIC (Staphylococcus aureus, MRSA, MRSA 741, Test 2, read-out: MIC): 8 µg/mL (≈ 22.9 µM); MIC [2]: > 128 µg/mL; MIC (Staphylococcus aureus, MRSA, MRSA 747, Test 2, read-out: MIC): > 128 µg/mL; MIC (Staphylococcus aureus, MRSA, MRSA 773, Test 1, read-out: MIC): 128 µg/mL (≈ 366 µM); MIC (Staphylococcus aureus, MRSA, MRSA 773, Test 2, read-out: MIC): 64 µg/mL (≈ 183 µM); MIC (Staphylococcus aureus, MRSA, MRSA 778, Test 1, read-out: MIC): > 128 µg/mL; MIC (Staphylococcus aureus, MRSA, MRSA 778, Test 2, read-out: MIC): > 128 µg/mL; MIC (Staphylococcus aureus, MRSA, MRSA 786, Test 1, read-out: MIC): 32 µg/mL (≈ 91.6 µM); MIC (Staphylococcus aureus, MRSA, MRSA 786, Test 2, read-out: MIC): 64 µg/mL (≈ 183 µM); MIC (Staphylococcus aureus, MRSA, MRSA 787, Test 1, read-out: MIC): > 128 µg/mL; MIC (Staphylococcus aureus, MRSA, MRSA 787, Test 2, read-out: MIC): > 128 µg/mL; MIC (Staphylococcus aureus, MRSA, MRSA 815, Test 1, read-out: MIC): 64 µg/mL (≈ 183 µM); MIC (Staphylococcus aureus, MRSA, MRSA 815, Test 2, read-out: MIC): 64 µg/mL (≈ 183 µM); MIC (Staphylococcus aureus, MRSA, MRSA 823, Test 1, read-out: MIC): > 128 µg/mL; MIC (Staphylococcus aureus, MRSA, MRSA 823, Test 2, read-out: MIC): > 128 µg/mL; MIC (Staphylococcus aureus, MRSA, MRSA 844, Test 1, read-out: MIC): 128 µg/mL (≈ 366 µM); MIC (Staphylococcus aureus, MRSA, MRSA 844, Test 2, read-out: MIC): 128 µg/mL (≈ 366 µM); MIC50 (Staphylococcus aureus, MRSA, 21 isolates): 64 µg/mL (≈ 183 µM)

Question: With `N=C(N/N=C/c1ccc(Cl)cc1)N/N=C/c1ccc(Cl)cc1` [NCL812, 1,3-bis[(E)-(4-chlorophenyl)methyleneamino]guanidine] as the molecule, how does the MIC [1] read?
Answer: The MIC was 8 µg/mL (≈ 23.9 µM).

Question: What about the MIC [2] of the same molecule?
Answer: The MIC was 8 µg/mL (≈ 23.9 µM).
